{"source": "patent US10806783B2", "about": "“Vaccine compositions” (priority 2014, dated 2020)", "tested_on": "Influenza virus", "assay_type": "in vivo", "conditions": "Example 4, FIG. 3; BALB-c mice, subcutaneous, day 0 and day 21; various time points; 2 μg antigen, freeze-dried and stored at 45° C.", "data": [{"smiles": "CN(C)CC(=O)O", "note": "[dimethylglycine, Dimethylglycine]", "values": [{"measurement": "HIA titre (effect with different excipients)", "value": "antigen sparing effect and acceleration of onset of immunity observed with polyethyleneimine are also observed"}]}]}
